# Assay results reported in US20200276181A1, “THIENOISOQUINOLINES AND THEIR DERIVATIVES FOR TARGETING TUBULIN, CH-TOG, AURORA A KINASE, TPX2, CDK5RAP2 AND/OR ASPM” (VALORBEC, SEC, priority 2017, published 2020).
# pIC50: −log10 of the molar value.
# Columns and labels:
# [1] = tested on: HeLa cells with lower levels of endogenous ch-TOG (ch-TOG RNAi); experiment: Spindle phenotypes with ch-TOG RNAi; assay type: cell-based, human; details: 200 nM C75 or 20 nM colchicine
# Excerpt: FIG. 7B) is a bar graph showing the proportion of phenotypes of the HeLa cells observed in the different conditions listed in 7A) (bipolar spindles in light grey; bipolar spindles with misaligned chromosomes in dark grey; multipolar/fragmented spindles in hatched lines; monopolar spindles in black).
# [2] = tested on: MCF7, BT549, A549, HCT116, HeLa cells; experiment: Viability in cancer vs non-cancer cell lines, summary of Table 3; assay type: cell-based, human
# Protocol: To date, 30 variants with different structural modifications have been made. […] In particular, it is shown that C75 causes death in multiple cancer cells with IC50 values in the 100-400 nM range, including breast cancers (MCF7, BT549), lung cancer (A549), colorectal cancer (HCT116) in addition to HeLa cells (cervical cancer).
# [3] = molecular target: T1, GFP-tagged ch-TOG (CKAP5) (Homo sapiens, UniProt Q14008); experiment: GFP-tagged ch-TOG localization; assay type: cell-based; details: mitotic HeLa cells vs non-treated
# T1 construct: expressed in transfected cells; host or cells: HeLa
# T1 sequence (Q14008 whole entry): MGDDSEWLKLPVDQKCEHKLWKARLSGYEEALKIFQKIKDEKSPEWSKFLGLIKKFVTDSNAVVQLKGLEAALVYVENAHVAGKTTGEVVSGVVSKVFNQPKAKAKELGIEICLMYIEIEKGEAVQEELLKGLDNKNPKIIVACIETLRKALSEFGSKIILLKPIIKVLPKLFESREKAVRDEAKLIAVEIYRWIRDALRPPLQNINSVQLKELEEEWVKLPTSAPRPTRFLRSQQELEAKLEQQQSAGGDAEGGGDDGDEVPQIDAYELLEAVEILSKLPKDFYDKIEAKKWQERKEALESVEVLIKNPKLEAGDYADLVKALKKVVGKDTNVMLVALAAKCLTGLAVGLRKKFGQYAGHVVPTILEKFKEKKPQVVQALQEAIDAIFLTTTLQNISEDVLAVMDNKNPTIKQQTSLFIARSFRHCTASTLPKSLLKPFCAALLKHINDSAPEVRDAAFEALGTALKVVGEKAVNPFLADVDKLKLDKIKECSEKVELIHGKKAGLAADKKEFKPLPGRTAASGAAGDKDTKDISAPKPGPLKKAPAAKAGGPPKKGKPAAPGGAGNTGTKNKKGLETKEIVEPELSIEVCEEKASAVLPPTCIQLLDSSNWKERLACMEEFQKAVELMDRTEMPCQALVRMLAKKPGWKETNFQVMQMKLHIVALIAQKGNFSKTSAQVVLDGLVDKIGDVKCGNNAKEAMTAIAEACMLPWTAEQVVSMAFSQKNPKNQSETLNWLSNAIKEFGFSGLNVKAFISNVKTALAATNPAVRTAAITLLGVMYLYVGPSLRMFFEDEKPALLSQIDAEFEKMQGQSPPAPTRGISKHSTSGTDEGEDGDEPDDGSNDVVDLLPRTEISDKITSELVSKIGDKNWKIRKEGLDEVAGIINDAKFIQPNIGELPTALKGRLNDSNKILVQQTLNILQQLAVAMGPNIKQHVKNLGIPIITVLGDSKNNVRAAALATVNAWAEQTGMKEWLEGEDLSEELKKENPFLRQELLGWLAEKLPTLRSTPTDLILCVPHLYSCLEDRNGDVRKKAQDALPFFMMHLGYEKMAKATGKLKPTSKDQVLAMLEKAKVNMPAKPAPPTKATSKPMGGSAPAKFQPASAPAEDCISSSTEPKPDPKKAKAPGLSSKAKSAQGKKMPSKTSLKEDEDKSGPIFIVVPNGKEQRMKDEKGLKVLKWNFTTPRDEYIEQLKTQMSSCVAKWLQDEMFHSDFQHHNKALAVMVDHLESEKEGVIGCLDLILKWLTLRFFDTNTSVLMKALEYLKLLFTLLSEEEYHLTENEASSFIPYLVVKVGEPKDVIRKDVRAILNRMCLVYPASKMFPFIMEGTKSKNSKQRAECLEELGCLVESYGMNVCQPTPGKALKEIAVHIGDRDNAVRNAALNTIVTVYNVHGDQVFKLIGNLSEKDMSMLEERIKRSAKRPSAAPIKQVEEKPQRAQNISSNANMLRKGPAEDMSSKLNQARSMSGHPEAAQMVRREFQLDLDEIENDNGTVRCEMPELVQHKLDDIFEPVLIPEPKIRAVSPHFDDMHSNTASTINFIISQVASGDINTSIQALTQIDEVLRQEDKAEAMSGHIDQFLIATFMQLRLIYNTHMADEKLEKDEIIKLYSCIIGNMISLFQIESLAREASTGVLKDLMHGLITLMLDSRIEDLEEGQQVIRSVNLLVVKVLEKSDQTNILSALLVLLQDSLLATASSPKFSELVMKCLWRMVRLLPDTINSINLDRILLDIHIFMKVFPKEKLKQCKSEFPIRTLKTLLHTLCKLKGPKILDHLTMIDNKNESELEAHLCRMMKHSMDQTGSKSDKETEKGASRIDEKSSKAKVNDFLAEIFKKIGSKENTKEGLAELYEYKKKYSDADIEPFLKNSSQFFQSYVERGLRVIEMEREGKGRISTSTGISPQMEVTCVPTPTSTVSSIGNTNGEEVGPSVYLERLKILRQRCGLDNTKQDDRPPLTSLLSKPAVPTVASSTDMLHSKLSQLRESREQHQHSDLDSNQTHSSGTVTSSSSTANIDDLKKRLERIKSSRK
# Protocol: As shown in FIG. 2L and FIG. 6, in HeLa cells expressing SiR-tubulin or GFP-tagged ch-TOG (CKAP5), which localizes to centrosomes, the addition of 100-300 nM of C75 causes the spindle poles to collapse together in metaphase cells within 1-2 minutes. The spindles recover, but become uneven or multipolar.
# ch-TOG contains multiple TOG domains that bind to tubulin dimers, and a microtubule-binding domain that binds to the microtubule lattice. If C75 were to bind and inhibit one or more of the TOG domains, this would shift its affinity onto microtubules, while inhibiting the microtubule domain would cause ch-TOG to become cytosolic.
# HeLa cells = experiment: Viability IC50 of C75 in combination with subthreshold tubulin-targeting drug; assay type: cell-based, human
# Excerpt: Bars show standard deviation. […] The bars indicate standard deviation. […] The bars indicate standard deviation. […] The scale bar for all cells is 10 μm.
# Bars show standard deviation. […] The scale bar for all cells is 10 μm. In FIG. 4F), bar graphs show changes in the proportion of HCT 116 cells with the different spindle phenotypes as in FIG. 4D (n=2368; N=3). […] Bars indicate standard deviation.
# [4] = tested on: HeLa cells with lower levels of endogenous MCAK (MCAK RNAi); experiment: Spindle phenotypes with MCAK RNAi; assay type: cell-based, human; details: 300 nM C75 or 30 nM colchicine
# Excerpt: FIG. 8B) is a bar graph showing the proportion of spindle phenotypes in HeLa cells treated as in 8A).
# Since this is unique to C75, and ch-TOG RNAi was previously shown to be suppressed (partially) by MCAK RNAi, supporting C75's role in targeting ch-TOG or a component of the pathway.
structure (smiles),measurement,setting,value
COc1ccc(S(=O)(=O)N2Cc3ccccc3-c3sc(Br)cc32)cc1 [Compound C75],"interaction with ch-TOG RNAi, fragmented spindle phenotype",[1],additive effect
same,efficacy (effect on viability) in cancer cells vs. non-cancer cells,[2],higher efficacy
same,pIC50,"[2]; Homo sapiens, MCF7, BT549, A549, HCT116, HeLa, read-out: IC50 values in multiple cancer cells",6.40 to 7.00
same,ch-TOG localization after treatment,[3],enriched at the centrosomes
same,lowering of the IC50 of C75 by subthreshold colchicine,HeLa cells; + 3 nM colchicine,~2 fold
same,reduction of the IC50 of C75 by subthreshold paclitaxel,HeLa cells; + 3 nM paclitaxel,~2 fold
same,suppression of fragmented spindle phenotype by MCAK RNAi,[4],partially suppressed
